Laboratory results reported in patent US8367720B2 (Panorama Research Inc., priority 2007, dated 2013).
Structures can show the parent of a compound that is named as a salt. Where two headings read alike, the source gives them in different places.

Columns and labels:
[1] = tested on: Staphylococcus aureus wild type; assay: Test of minimal inhibitory concentration (MIC); assay type: cell-based; settings: two-fold dilution, 37° C., 24 h, absorbance 595 nm
MRSA5677 = assay: Test of minimal inhibitory concentration (MIC); assay type: cell-based, Staphylococcus aureus; settings: two-fold dilution, 37° C., 24 h, absorbance 595 nm
L1210 leukemia cells = assay: In vitro antitumor activity to L1210 leukemia cells (MTT); assay type: cell-based
Method: The cells were cultured in an incubator at 37° C., 5% CO2 and saturated humidity for 48 h. Then 5 mg/mL MTT (20 μL/well) was added and cultured at the same conditions for 4 h, DMSO (150 μL/well) was added, and the (570/630 nm) absorbance (A values) was measured by using micro-plate reader.

MRSA5676 = assay: Test of minimal inhibitory concentration (MIC); assay type: cell-based, Staphylococcus aureus; settings: two-fold dilution, 37° C., 24 h, absorbance 595 nm
[2] = tested on: secretion of pyocyanin by Pseudomonas aeruginosa; assay: Measurement of pyocyanin; assay type: cell-based; settings: 18 h culture, A520; Andro, AL-1 1 mM; Chuanhuning, Yanhuning, Lianbizhi 10 mM (FIG. 3)
Method: Pseudomonas aeruginosa was inoculated in LB medium, then cultured at a constant temperature of 37° C. in a shaker overnight. […] The supernatant was taken and extracted in turn with chloroform and 0.2 N HCl, and A520 values were measured (Zielinshi et al., Biol. Chem. 1991, 266, 9754-9763; May et al., Clin. Microbiology Rev. 1991, 4, 191-206).

[3] = tested on: extracellular protease of Pseudomonas aeruginosa; assay: Measurement of extracellular protease; assay type: cell-based; settings: azo-casein, A440; Andro, AL-1 1 mM; Chuanhuning, Yanhuning, Lianbizhi 10 mM (FIG. 4)
Method: Pseudomonas aeruginosa was inoculated in LB liquid, and cultured at a constant temperature of 37° C. in a shaker overnight. […] After the bacterial liquids were cultured simultaneously at 37° C. for 6 h and centrifuged, supernatant 100 μL was taken, azo-casein 5 mg was added, […] and CaCl2 10 mM were added, and then they were shaken for reaction at 37° C. for 6 h, and the reaction was terminated by adding EDTA-Na. The A440 values of the supernatants were measured (Zielinshi et al., Biol. Chem. 1991, 266, 9754-9763; May et al., Clin. Microbiology Rev. 1991, 4, 191-206).

L1210 cells = assay type: cell-based
Method: The cells were cultured in an incubator at 37° C., 5% CO2 and saturated humidity. The culture medium was removed, the cells were washed with PBS twice, fixed at −20° C. overnight. Then the cells were centrifuged again, washed with PBS to remove ethanol, cultured with RNase A (200 μg/mL, Sigma) at 37° C. for 1 h, stained with PI (50 μg/mL, Sigma) in dark for 30 min, and detected by using a flow cytometer.

Bacillus subtilis = assay: Inhibition zone test (holing method); assay type: cell-based; settings: 37° C., 24 h; compounds 0.05 mg/well, streptomycin 0.15 mg/well
Method: (§1) After being cultured at 37° C. for 24 h, the sizes of inhibition zones were measured.

Candida albicans = assay: Inhibition zone test (holing method); assay type: cell-based; settings: 37° C., 24 h; compounds 0.05 mg/well, nysfungin 0.10 mg/well
Method: as §1

[4] = tested on: Staphylococcus aureus wild type; assay: Inhibition zone test (holing method); assay type: cell-based; settings: 37° C., 24 h; compounds 0.05 mg/well, streptomycin 0.15 mg/well
Method: as §1

E. coli = assay: Inhibition zone test (holing method); assay type: cell-based; settings: 37° C., 24 h; compounds 0.05 mg/well, gentamicin 0.10 mg/well
Method: as §1

[5] = tested on: Staphylococcus aureus MRSA 5676; assay: Inhibition zone test (holing method); assay type: cell-based; settings: 37° C., 24 h; compounds 0.05 mg/well, vancomycin 0.15 mg/well
Method: as §1

[6] = tested on: Staphylococcus aureus MRSA 5677; assay: Inhibition zone test (holing method); assay type: cell-based; settings: 37° C., 24 h; compounds 0.05 mg/well, vancomycin 0.15 mg/well
Method: as §1

Pseudomonas aeruginosa [7] = assay: Inhibition zone test (holing method); assay type: cell-based; settings: 37° C., 24 h; compounds 0.05 mg/well, gentamicin 0.10 mg/well
Method: as §1

[8] = tested on: suspended Pseudomonas aeruginosa; assay: Experiment of combination with antibiotics; assay type: cell-based; settings: Pseudomonas aeruginosa cultured 15 h, OD600; ciprofloxacin 0.017 μg/mL, erythromycin 3.75 μg/mL, Andro 350 μg/mL, AL-1 538 μg/mL (1 μmol/mL)
[9] = tested on: rats with STZ-induced diabetes mellitus; assay: Therapeutical effects on STZ-induced diabetes mellitus in rats; settings: Day 0, before treatment
Method: 30 Female SD rats, 180-220 g, fasted for 16 h, were subjected to intraperitoneal injection of 60 mg/kg of STZ (purchased from Sigma Company). After 72 h, blood samples were collected from the rats by cutting their tails after fasting 16 h, and blood glucose values were measured by using a blood glucose analyzer (Johnson & Johnson Company). […] Animals were weighed, orbital bleeded, and the sera were separated. According to the instructions of kit (Zhejiang Dongou Biotechnology Co., Ltd.), the contents of triglyceride and total cholesterol were measured. […] The rats of vehicle group were treated with an equivalent volume of solvent (20% DMSO in H2O). After being fasted for 16 h, the rats were weighed, and bleeded for the measurement of blood glucose, triglyceride and total cholesterol. The obtained data were processed by using one-factor analysis of variance (One-way ANOVA) followed by Student's t-test.

Pseudomonas aeruginosa [10] = assay: Measurement of growth curve of Pseudomonas aeruginosa; assay type: cell-based; settings: 10 mM according to FIG. 2 legend
Method: Pseudomonas aeruginosa was inoculated in LB medium, and cultured at a constant temperature of 37° C. in a shaker overnight.

NF-kappaB = settings: 0.5 mmol/L, HAEC pretreated 48 h, TNF-α 10 U/ml; cited from earlier work
glutathione = settings: after injection to animals; especially lung, liver and kidney cells; cited from earlier work
[11] = L1210 cells, 48 h, MTT, read-out: IC50

| Compound | Inhibition zone diameter, Bacillus Subtilis (Bacillus subtilis) | Inhibition zone diameter, Candida albicans (Candida albicans) | Inhibition zone diameter, Staphylococcus aureus Wild type [4] | Inhibition zone diameter, E. coli (E. coli) | Inhibition zone diameter, Staphylococcus aureus MRSA 5676 [5] | Inhibition zone diameter, Staphylococcus aureus MRSA 5677 [6] | Inhibition zone diameter, Pseudomonas aeruginosa (Pseudomonas aeruginosa [7]) | further results |
| --- | --- | --- | --- | --- | --- | --- | --- | --- |
| C=C1CCC2[C@](C)(CO)[C@H](O)CC[C@@]2(C)[C@@H]1C/C=C1/C(=O)OCC1OC(=O)/C=C/c1ccc([N+](=O)[O-])cc1 (some centres unmarked) [ANO, 14-[4′-nitrocinnamyl]-3,19-dihydroxy-andrographolide] | ^b (incompetence (inhibition zone diameter <4 mm)) | ^b (incompetence (inhibition zone diameter <4 mm)) | 8.3 ± 0.99 mm | ^b (incompetence (inhibition zone diameter <4 mm)) | 8.1 ± 0.64 mm | 6.4 ± 0.42 mm | ^b (incompetence (inhibition zone diameter <4 mm)) | MIC, Wild type [1]: 62.5; MIC, MRSA5677 (MRSA5677): 25; IC50 (L1210 leukemia cells; Mus musculus, L1210 cells, 48 h, MTT, read-out: IC50): 9.96 ± 2.25 µM; MIC, MRSA5676 (MRSA5676): 62.5; inhibition of the secretion of pyocyanin [2]: AL-1>Andro>ANO; inhibition of the production/activity of extracellular protease [3]: AL-1>ANO>Andro; effect on cell cycle / apoptosis of L1210 cells (L1210 cells; 10 μM, after 12 h): arrest L1210 cells at G1 prophase |
| COc1cccc2c1C(=O)c1c(O)c3c(c(O)c1C2=O)C[C@@](O)(C(=O)CO)C[C@@H]3O[C@H]1C[C@H](N)[C@H](O)[C@H](C)O1 [Dox, doxorubicin hydrochloride] |  |  |  |  |  |  |  | effect on cell cycle of L1210 cells (L1210 cells; concentration not given): arrested L1210 cells at G2 phase |
| CC[C@H]1OC(=O)[C@H](C)[C@@H](O[C@H]2C[C@@](C)(OC)[C@@H](O)[C@H](C)O2)[C@H](C)[C@@H](O[C@@H]2O[C@H](C)C[C@H](N(C)C)[C@H]2O)[C@](C)(O)C[C@@H](C)C(=O)[C@H](C)[C@@H](O)[C@]1(C)O [Erythromycin] |  |  |  |  |  |  |  | Survival Rate [8]: 93.9% |
| COc1ccc(Cl)cc1C(=O)NCCc1ccc(S(=O)(=O)NC(=O)NC2CCCCC2)cc1 [Glibenclamide] |  |  |  |  |  |  |  | Blood glucose [9]: 26.9 ± 1.56 mmol/L; Body weight [9]: 201 ± 3.61 g; Total cholesterol [9]: 2.57 ± 1.09 mmol/L; Total triglyceride [9]: 7.84 ± 2.21 mmol/L |
| C=C1CCC2[C@@](C)(CC[C@@H](O)[C@@]2(C)CO)C1CC(C1=CCOC1=O)S(=O)(=O)[O-].[Na+] (some centres unmarked) [Lianbizhi, andrographolide sodium bisulfite] | ^b (incompetence (inhibition zone diameter <4 mm)) | ^b (incompetence (inhibition zone diameter <4 mm)) | ^b (incompetence (inhibition zone diameter <4 mm)) | ^b (incompetence (inhibition zone diameter <4 mm)) | ^b (incompetence (inhibition zone diameter <4 mm)) | ^b (incompetence (inhibition zone diameter <4 mm)) | ^b (incompetence (inhibition zone diameter <4 mm)) | IC50 (L1210 leukemia cells; Mus musculus, L1210, 48 h): > 100 µM; inhibition of the growth of Pseudomonas aeruginosa (growth curve, A600) (Pseudomonas aeruginosa [10]): no direct inhibition effect |
| [H]/N=C(/N)N[C@H]1[C@H](O)[C@@H](O)[C@H](O[C@@H]2O[C@@H](C)[C@](O)(C=O)[C@H]2O[C@@H]2O[C@@H](CO)[C@H](O)[C@@H](O)[C@@H]2NC)[C@@H](N/C(N)=N\[H])[C@@H]1O [Streptomycin] | 22.1 ± 1.00 mm |  | 21.2 ± 1.00 mm |  |  |  |  |  |
| CN[C@H](CC(C)C)C(=O)N[C@H]1C(=O)N[C@@H](CC(N)=O)C(=O)N[C@H]2C(=O)N[C@H]3C(=O)N[C@H](C(=O)N[C@H](C(=O)O)c4cc(O)cc(O)c4-c4cc3ccc4O)[C@H](O)c3ccc(c(Cl)c3)Oc3cc2cc(c3O[C@@H]2O[C@H](CO)[C@@H](O)[C@H](O)[C@H]2O[C@H]2C[C@](C)(N)[C@H](O)[C@H](C)O2)Oc2ccc(cc2Cl)[C@H]1O [Vancomycin] |  |  |  |  | 20.0 ± 1.00 mm | 21.0 ± 1.00 mm |  | MIC, Wild type [1]: 1.56; MIC, MRSA5677 (MRSA5677): 3.13; MIC, MRSA5676 (MRSA5676): 1.56 |
| O=C(O)CCCCC1CCSS1 (stereo not drawn) [lipoic acid, Alpha-lipoic acid] |  |  |  |  |  |  |  | inhibition of NF-kappaB activity induced by TNF-α (NF-kappaB): 81%; increase of glutathione level (glutathione): 30%-70% |
| Gentamicin |  |  |  | 20.1 ± 1.00 mm |  |  | 21.0 ± 1.00 mm |  |
| Nysfungin |  | 10.00 ± 1.00 mm |  |  |  |  |  |  |
| potassium dehydroandrograpolide succinate [Chuanhuning] | ^b (incompetence (inhibition zone diameter <4 mm)) | ^b (incompetence (inhibition zone diameter <4 mm)) | ^b (incompetence (inhibition zone diameter <4 mm)) | ^b (incompetence (inhibition zone diameter <4 mm)) | ^b (incompetence (inhibition zone diameter <4 mm)) | ^b (incompetence (inhibition zone diameter <4 mm)) | ^b (incompetence (inhibition zone diameter <4 mm)) | IC50 (L1210 leukemia cells; [11]): > 100 µM; inhibition of the growth of Pseudomonas aeruginosa (growth curve, A600) (Pseudomonas aeruginosa [10]): no direct inhibition effect |
| potassium sodium dehydroandrographolide succinate [Yanhuning] | ^b (incompetence (inhibition zone diameter <4 mm)) | ^b (incompetence (inhibition zone diameter <4 mm)) | ^b (incompetence (inhibition zone diameter <4 mm)) | ^b (incompetence (inhibition zone diameter <4 mm)) | ^b (incompetence (inhibition zone diameter <4 mm)) | ^b (incompetence (inhibition zone diameter <4 mm)) | ^b (incompetence (inhibition zone diameter <4 mm)) | IC50 (L1210 leukemia cells; [11]): > 100 µM; inhibition of the growth of Pseudomonas aeruginosa (growth curve, A600) (Pseudomonas aeruginosa [10]): no direct inhibition effect |
